Test results reported in patent US20240058453A1 (priority 2022, published 2024).

System: bacteria
Assay type: cell-based

For `NC[C@H]1O[C@H](O[C@H]2[C@H](O)[C@@H](O[C@H]3O[C@H](CO)[C@@H](O)[C@H](N)[C@H]3O)[C@H](N)C[C@@H]2N)[C@H](N)C[C@@H]1O` [tobramycin], which bacteria killing activity is on record?
Its bacteria killing activity is “comparable activity”.
